Values of other authors, collected in patent US20080300304A1, “Ginger Fraction For Inhibiting Human Cyp Enzymes” (priority 2005, published 2008).

SMILES | oral availability [%]
CC(C)c1c(C(=O)Nc2ccccc2)c(-c2ccccc2)c(-c2ccc(F)cc2)n1CC[C@@H](O)C[C@@H](O)CC(=O)O [atorvastatin] | 12
COc1cc(N)c(Cl)cc1C(=O)NC1CCN(CCCOc2ccc(F)cc2)CC1OC (stereo not drawn) [cisapride] | 38
CC(=O)O[C@@]12CO[C@@H]1C[C@H](O)[C@@]1(C)C(=O)[C@H](O)C3=C(C)[C@@H](OC(=O)[C@H](O)[C@@H](NC(=O)OC(C)(C)C)c4ccccc4)C[C@@](O)([C@@H](OC(=O)c4ccccc4)[C@H]21)C3(C)C [docetaxel] | 8
CCOC(=O)C1=C(C)NC(C)=C(C(=O)OC)C1c1cccc(Cl)c1Cl (stereo not drawn) [felodipine] | 15
CC[C@H](C)C(=O)O[C@H]1C[C@@H](C)C=C2C=C[C@H](C)[C@H](CC[C@@H]3C[C@@H](O)CC(=O)O3)[C@H]21 [lovastatin] | 4
CO[C@H]1/C=C/O[C@@]2(C)Oc3c(C)c(O)c4c(c3C2=O)C2=NC3(CCN(CC(C)C)CC3)NC2=C(NC(=O)/C(C)=C\C=C\[C@H](C)[C@H](O)[C@@H](C)[C@@H](O)[C@@H](C)[C@H](OC(C)=O)[C@@H]1C)C4=O [rifabutin] | 20
CO[C@H]1C[C@@H]2CC[C@@H](C)[C@@](O)(O2)C(=O)C(=O)N2CCCC[C@H]2C(=O)O[C@H]([C@H](C)C[C@@H]2CC[C@@H](O)[C@H](OC)C2)CC(=O)[C@H](C)/C=C(\C)[C@@H](O)[C@@H](OC)C(=O)[C@H](C)C[C@H](C)/C=C/C=C/C=C/1C [sirolimus] | 15
C=CC[C@@H]1/C=C(\C)C[C@H](C)C[C@H](OC)[C@H]2O[C@@](O)(C(=O)C(=O)N3CCCC[C@H]3C(=O)O[C@H](/C(C)=C/[C@@H]3CC[C@@H](O)[C@H](OC)C3)[C@H](C)[C@@H](O)CC1=O)[C@H](C)C[C@@H]2OC [tacrolimus] | 16
C/C=C/C[C@@H](C)C(=O)[C@H]1C(=O)N[C@@H](C(C)C)C(=O)N(C)CC(=O)N(C)[C@@H](CC(C)C)C(=O)N[C@@H](C(C)C)C(=O)N(C)[C@@H](CC(C)C)C(=O)N[C@@H](C)C(=O)N[C@H](C)C(=O)N(C)[C@@H](CC(C)C)C(=O)N(C)[C@@H](CC(C)C)C(=O)N(C)[C@@H](C(C)C)C(=O)N1C [valspodar] | 34
